# In patent US4229471A, “N-(2-Ethylhexyl)-crotonamides” (The Lion Dentifrice Co., Ltd., priority 1978, dated 1980):
# How the values were obtained:
# Acute toxicity test = conditions: in vivo, ip; ICR male mouse, intraperitoneal
# [1] = test system: cancerized mast cells (Mastocytoma P-815); experiment: Inhibition of growth of cancerized mast cells (Mastocytoma P-815) during 20 hours of cultivation; format: cell-based, mouse; conditions: 20 hour cultivation, 37° C., FIG. 5
# Method: 20 ml of a culture medium containing cancerized mast cells of a mouse (Mastocytoma P-815) at an inoculum cell concentration of 1.6×10^5 cells/ml in Fischer and Sartorelli's medium supplemented with 5% fetal calf serium were cultured in a 120 ml Erlenmeyer flask with or without drugs to be tested in an atmosphere of 5% CO2 and 95% air at 37° C. for 20 hours in a humidified incubator. Drugs, N-(2-ethylhexyl)-crotonamide, N-(2-ethylhexyl)-β-methylcrotonamide or N-(2-ethylhexyl)-β-hydroxybutyramide were added in different amounts to the initial culture medium. No drug was added to a control solution. After cultivation, the number of cells was counted.
# The results are shown in FIG. 5 wherein A corresponds to N-(2-ethylhexyl)-crotonamide, B corresponds to N-(2-ethylhexyl)-beta-methylcrotonamide, C corresponds to N-(2-ethylhexyl)-beta-hydroxybutyramide, D is the inoculum cell number, and E corresponds to the control. A, B, C and E are the cell numbers after 20 hour cultivation as described above.
# Mastocytoma P-815 = experiment: Ascites tumor (Mastocytoma P-815) inhibition in BDF1 mice; format: in vivo; conditions: 0.5 mg/mouse/day × 6, intraperitoneal
# Method: Mice of BDF1 species (5 week old male, suppliers: Charles River and Shizuoka Laboratory Animal Center) were divided into four groups each containing three to six. Cancerized mast cells (Mastocytoma P-815) were implanted into the ascites of a mouse in an amount of 1×10^6 cells/mouse. From the next day, drug
# A: N-(2-ethylhexyl)-crotonamide,
# B: N-(2-ethylhexyl)-beta-methylcrotonamide, or
# C: N-(2-ethylhexyl)-beta-hydroxybutyramide
# was administered once a day by intra-peritoneal injection in an amount of 0.5 mg/mouse/day for 6 days, respectively. After 18 hours from the last administration, the mice were killed with ether for anesthesia. The entire ascitic cells were taken out with about 20 ml of phosphate buffered saline. Using the nigrosine staining method (0.01% nigrosine in Earl's balanced salt solution), the number of cells, particularly, live cells were counted by means of a Thomas leucocyte counting apparatus.
# For the above-described administration procedure was used 50 mg of the drug to which 25 mg of polyoxyethylene sorbitan monooleate (Tween 80) was added and the mixture was suspended in 5 ml of physiological salt solution and sterilized in an autoclave at 120° C. under 2 atm. for 15 minutes. The resulting sterile suspension was ready for administration.
# **Tumor inhibition ratio was calculated in terms of the following
# C : number of ascites cancer cells in the control group
# N : number of ascites cancer cells in the treated group
# [2] = test system: DNA synthesis in cancerized mast cells (Mastocytoma P-815); experiment: 3H-TdR incorporation into DNA of cancerized mast cells; format: cell-based, mouse; conditions: for inhibition at 100 µg/mL / inhibition at 500 µg/mL: Mus musculus, P815, 1.25 h, read-out: DNA synthesis inhibition ratio
# Method: Effects of drugs on ^3 H-TdR (tritium labelled thymidine) incorporation into DNA of cancerized mast cells were examined.
# Cancerized mast cells (Mastocytoma P-815), 4.25×10^6 cells, were incubated for 15 minutes with or without each of drugs, A: (N-(2-ethylhexyl)-crotonamide), B: (N-(2-ethylhexyl)-β-methylcrotonamide) and C: (N-(2-ethylhexyl)-β-hydroxybutyramide) (each 100 μg and 500 μg) in 1 cc of Fischer culture medium. Thereafter, 0.1 μCi of ^3 H-TdR was added and incubation was proceeded for an additional 60 minutes. The cells were washed with PBS and the DNA was precipitated with 5% (W/V) trichloroacetic acid. Precipitates were counted in a liquid Scintillation Spectrometer.
# *Inhibition ratio was calculated in terms of the following equation: […]
# c : amount of ^3 H--TdR incorporated in the control group (cpm)
# s : amount of ^3 H--TdR incorporated in the treated group (cpm)
# Solubility = format: physicochemical; conditions: for solubility in organic solvents: organic solvents such as acetone
# cancerous cells = experiment: Carcinostatic activity (overall statement)
# [3] = Shizuoka Laboratory Animal Center BDF1 mice
Structure (SMILES),LD50 (Acute toxicity test),inhibition of division and growth of cancerized mast cells [1],Number of ascites cancer cells (Mastocytoma P-815; Charles River BDF1 mice),Tumor inhibition ratio (Mastocytoma P-815; Charles River BDF1 mice),Number of ascites cancer cells (Mastocytoma P-815; [3]),Tumor inhibition ratio (Mastocytoma P-815; [3]),inhibition of DNA synthesis (in words) [2],3H-TdR incorporated (cpm) ([2]; 100 μg in 1 cc medium),3H-TdR incorporated (cpm) ([2]; 500 μg in 1 cc medium),inhibition at 100 µg/mL ([2]; 100 μg in 1 cc medium),inhibition at 500 µg/mL ([2]; 500 μg in 1 cc medium),solubility in organic solvents (Solubility),solubility in water (Solubility),carcinostatic activity (cancerous cells)
"C/C=C/C(=O)NCC(CC)CCCC (stereo not drawn) [Drug A, N-(2-ethylhexyl)-crotonamide]",540 mg/kg,more effective than N-(2-ethylhexyl)-β-hydroxybutyramide,1.5 ×10^8 /mouse,90.9%,1.2 ×10^8 /mouse,87.6%,effective in inhibiting DNA synthesis,400 cpm,75 cpm,90.1%,98.1%,soluble in organic solvents such as acetone,insoluble in water,high carcinostatic activity
"CCCCC(CC)CNC(=O)C=C(C)C (stereo not drawn) [Drug B, N-(2-ethylhexyl)-β-methylcrotonamide]",1400 mg/kg,more effective than N-(2-ethylhexyl)-β-hydroxybutyramide,9.5 ×10^8 /mouse,42.1%,4.0 ×10^8 /mouse,58.8%,effective in inhibiting DNA synthesis,200 cpm,0 cpm,95.1%,100%,soluble in organic solvents such as acetone,insoluble in water,high carcinostatic activity
"CCCCC(CC)CNC(=O)CC(C)O (stereo not drawn) [Drug C, N-(2-ethylhexyl)-β-hydroxybutyramide, reference compound]",–,–,6.0 ×10^8 /mouse,63.4%,6.7 ×10^8 /mouse,30.9%,–,2205 cpm,1200 cpm,45.6%,70.4%,–,–,–
